# Laboratory results taken from paper PMC9132125 (Journal of natural products, 2016).
# Key:
# [1] = system: KCL-22 and T315I KCL-22 CML cell lines; assay: Biological screening at 1 μM on the two CML cell lines; assay type: cell-based, human
# [2] = system: GSK-3β; details: read-out: GSK-3β IC50; previously published; cited from earlier work
# [3] = target: c-Src (Homo sapiens, UniProt P12931); assay: Kinase assay in vitro; assay type: biochemical; details: recombinant protein, 33P-ATP
# [4] = system: T315I mutant KCL-22 CML cells; assay: MTS cell viability assay, imatinib-resistant T315I mutant KCL-22 CML cells; assay type: cell-based, human; details: 48 h exposure
# c-Src, sequence (P12931 whole entry): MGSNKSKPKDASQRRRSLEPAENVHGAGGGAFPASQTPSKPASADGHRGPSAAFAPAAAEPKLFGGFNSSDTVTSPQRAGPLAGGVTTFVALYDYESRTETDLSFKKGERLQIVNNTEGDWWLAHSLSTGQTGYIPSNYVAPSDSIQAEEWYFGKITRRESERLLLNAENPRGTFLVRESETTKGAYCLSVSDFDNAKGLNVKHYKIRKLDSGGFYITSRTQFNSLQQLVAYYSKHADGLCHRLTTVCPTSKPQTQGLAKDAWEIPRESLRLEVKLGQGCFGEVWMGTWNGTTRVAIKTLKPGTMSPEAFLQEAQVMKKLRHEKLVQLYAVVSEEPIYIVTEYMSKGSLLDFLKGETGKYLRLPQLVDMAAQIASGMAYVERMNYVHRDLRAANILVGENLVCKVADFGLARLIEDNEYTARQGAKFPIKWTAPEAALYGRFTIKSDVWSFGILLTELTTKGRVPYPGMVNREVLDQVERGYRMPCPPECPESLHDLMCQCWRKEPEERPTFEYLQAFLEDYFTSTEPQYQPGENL
SMILES,cytotoxic activity in the screening (in words) [1],IC50 [2] [nM],c-Src IC50 range (in words) [3],T315I mutant KCL-22 IC50 range (in words) [4]
"O=C1Nc2ccccc2/C1=C1/Nc2ccccc2C1=O [compound 1, Indirubin, reference compound]",loss of activity,–,–,–
O=C1Nc2ccccc2/C1=C1/Nc2ccccc2/C1=N\O [compound 2],loss of activity,–,–,–
CN(CCO/N=C1/C(=C2/C(=O)Nc3cc(Br)ccc32)Nc2ccccc21)CC(O)CO (stereo not drawn) [compound 17],–,67,picomolar,submicromolar range
CN(CCO/N=C1/C(=C2/C(=O)Nc3cc(Br)ccc32)Nc2ccccc21)CC(O)CO.Cl (stereo not drawn) [compound 18],–,23,picomolar,submicromolar range
O=C1Nc2cc(Br)ccc2/C1=C1/Nc2ccccc2/C1=N\OCCN1CCCC1 [compound 19],–,26,nanomolar,submicromolar range
Cl.O=C1Nc2cc(Br)ccc2/C1=C1/Nc2ccccc2/C1=N\OCCN1CCCC1 [compound 20],–,54,nanomolar,submicromolar range
Cl.Cl.O=C1Nc2cc(Br)ccc2/C1=C1/Nc2ccccc2/C1=N\OCCN1CCNCC1 [compound 22],–,–,picomolar,submicromolar range
COCCN1CCN(CCO/N=C2/C(=C3/C(=O)Nc4cc(Br)ccc43)Nc3ccccc32)CC1 [compound 27],–,110,nanomolar,submicromolar range
COCCN1CCN(CCO/N=C2/C(=C3/C(=O)Nc4cc(Br)ccc43)Nc3ccccc32)CC1.Cl.Cl [compound 28],–,200,nanomolar,submicromolar range
O=C1Nc2cc(Br)ccc2/C1=C1/Nc2ccccc2/C1=N\OCCN1CCN(CCOCCO)CC1 [compound 29],–,14,picomolar,–
Cl.Cl.O=C1Nc2cc(Br)ccc2/C1=C1/Nc2ccccc2/C1=N\OCCN1CCN(CCOCCO)CC1 [compound 30],–,–,–,submicromolar range
O=C1Nc2ccccc2/C1=C1/Nc2cc(Br)ccc2C1=O [compound 57],inactive,–,–,–
O=C1Nc2ccccc2/C1=C1/Nc2cc(Br)ccc2/C1=N\O [compound 58],inactive,–,–,–
